The source of these data is patent US9469639B2, “Naphthylurea derivatives and medical applications thereof” (RADIANT PHARMA & TECH. CO., LTD., priority 2013, dated 2016).

In brackets after ≈: the same amount, converted by molar mass.

This series in a line: Water-solubility test. Type of series: physicochemical. To be noted: 22° C.; for solubility at 24 h: water, pH 5.5, water, thermodynamic from solid, ultrasonic mixing for 24 hours, pH5.5, average of two experiments.

Usually solubility stands for the dissolved amount per volume that the medium holds. A high value points to a readily soluble substance. The compound `Cc1cccc(NC(=O)Nc2ccc(-c3cncc4[nH]nc(N)c34)c3ccccc23)c1` [Compound (IV)] gave a solubility at 24 h of 0.0925 µg/mL (≈ 0.226 µM).

The compound `Cc1ccc(F)c(NC(=O)Nc2ccc(-c3ccc(OCCCN4CCCC4)c4[nH]nc(N)c34)c3ccccc23)c1` [Compound (V)] displayed a solubility at 24 h of 0.64 µg/mL (≈ 1.16 µM). Moreover, the “Water solubility relative to compound (IV)” value (pH5.5, ratio versus compound (IV)) is recorded as 6.9 times.
